From patent US4701465A, “N-acylpyrrolidine derivative and synthesis and use thereof” (Suntory Limited, priority 1985, dated 1987)
Blank lines part the entries; values can stand above or below the molecule they belong to.

Legend:
[1] = tested on: experimental amnesia caused in rats by scopolamine; assay: Preventive effect against experimental amnesia caused in rats by scopolamine (passive avoidance learning, intraperitoneal administration); type: in vivo, Wister male rats; conditions: 1 mg/kg i.p.; for No. of amnesic rats/No. of rats tested / percentage amnesia / Avoidance time 24 hrs. later / Avoidance time 48 hrs. later: scopolamine 3 mg/kg i.p. after learning; for preventive effect against scopolamine amnesia (in words): rats
Protocol: Several of the anti-prolyl endopeptidase compounds of the present invention were checked for their ability to prevent the inhibition of long-term memory fixation by scopolamine. Solutions of physiological saline that contained selected compounds of the present inventions in an amount of 1 mg/kg were administered intraperitoneally to Wister male rats (100-120 g). One hour after the administration, electric shocks were applied to the rats so that they would acquire passive avoidance learning. Immediately thereafter, scopolamine was administered intraperitoneally to each rat in an amount of 3 mg per kg of body weight.
The result of the test was assessed both 24 hours and 48 hours after the administration of scopolamine. The number of amnesic rats and of sound rats was counted for both the control group (rats which were not given the test compounds but to which scopolamine and physiological saline alone were administered intraperitoneally) and the treated group (rats to which both the test compound and scopolamine were administered).

prolyl endopeptidase = prolyl endopeptidase (Elizabethkingia meningoseptica, UniProt P27028); assay: Measurement of anti-prolyl endopeptidase activity; type: biochemical; conditions: substrate Z-glycyl-proline-β-naphthylamide, 0.1M phosphate buffer pH 7.06, absorbance at 410 nm
Protocol: The method of Yoshimoto and Tsuru (T. Yoshimoto and D. Tsuru, Agr. Biol. Chem. 42, 2417, 1978) was used to measure the anti-prolyl endopeptidase activities of compounds of the present invention. A mixture of 0.0025M Z-glycyl-proline-β-naphthylamide (0.25 ml), 0.1M phosphate buffer (pH, 7.06; 0.99 ml) and a solution of a particular anti-prolyl endopeptidase compound (0.01 ml) was incubated in a test tube at 37° C. for 3 minutes. Thereafter, 0.1 ml of a solution of prolyl endopeptidase (0.2 U/ml) was added and the mixture was heated at 35° C. for 10 minutes. After the reaction, 2.0 ml of Triton X-100 in 1M acetate buffer (pH, 4.0) was added to the reaction mixture until the final concentration of the surfactant was 10%. The mixture was left at room temperature for 15 minutes and the absorbance (a) at 410 nm was measured.
A sample for a blind test was prepared by using the buffer instead of the anti-prolyl endopeptidase compound and its absorbance (b) was also measured. The percent inhibition of prolyl endopeptidase was calculated by the formula: ((b-a)/b)×100, and the amount of a specific compound to achieve 50% inhibition IC50) was determined.

Sequence of prolyl endopeptidase (P27028 21-705): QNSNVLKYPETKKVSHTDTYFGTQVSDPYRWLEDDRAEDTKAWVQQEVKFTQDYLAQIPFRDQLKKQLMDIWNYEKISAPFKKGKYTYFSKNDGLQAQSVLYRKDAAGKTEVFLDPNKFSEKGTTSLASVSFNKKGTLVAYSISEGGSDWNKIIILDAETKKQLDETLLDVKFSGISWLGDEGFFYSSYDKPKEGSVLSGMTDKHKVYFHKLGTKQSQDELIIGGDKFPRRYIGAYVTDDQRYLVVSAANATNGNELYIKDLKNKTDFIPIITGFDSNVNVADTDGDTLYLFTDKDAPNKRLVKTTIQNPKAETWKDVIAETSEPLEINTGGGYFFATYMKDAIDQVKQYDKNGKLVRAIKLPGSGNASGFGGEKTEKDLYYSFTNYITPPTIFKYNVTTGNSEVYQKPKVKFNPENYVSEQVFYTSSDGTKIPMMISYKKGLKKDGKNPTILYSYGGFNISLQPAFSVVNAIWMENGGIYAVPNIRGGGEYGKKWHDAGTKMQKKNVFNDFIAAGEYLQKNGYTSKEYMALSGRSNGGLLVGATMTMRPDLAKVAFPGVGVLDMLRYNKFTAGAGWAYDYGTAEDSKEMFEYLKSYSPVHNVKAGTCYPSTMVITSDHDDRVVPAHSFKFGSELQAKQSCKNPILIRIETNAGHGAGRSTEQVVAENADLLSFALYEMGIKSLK

SMILES: O=CC1CCCN1C(=O)CCC(c1ccccc1)c1ccccc1 (centres unmarked) [SUAM1090]
No. of amnesic rats/No. of rats tested [1]: 4/10
percentage amnesia [1]: 40%
Avoidance time 24 hrs. later [1]: 232.8 s
Avoidance time 48 hrs. later [1]: 202.36 s

SMILES: O=CC1CCCN1C(=O)Cc1ccc(Cl)cc1 (centres unmarked) [compound 16]
IC50 (amount of compound to achieve 50% inhibition of prolyl endopeptidase) (prolyl endopeptidase): 0.5 μg/test tube

SMILES: COc1ccc(CCC(=O)N2CCCC2C=O)cc1 (centres unmarked) [compound 8]
IC50 (amount of compound to achieve 50% inhibition of prolyl endopeptidase) (prolyl endopeptidase): 1.0 μg/test tube

SMILES: COc1ccc(CCC(=O)N2CCCC2C=O)cc1 (centres unmarked) [SUAM1050]
No. of amnesic rats/No. of rats tested [1]: 5/10
percentage amnesia [1]: 50%
Avoidance time 24 hrs. later [1]: 198.2 s
Avoidance time 48 hrs. later [1]: 203.5 s

SMILES: COC(=O)C1CCCN1C(=O)CCc1ccc(Cl)cc1 (centres unmarked) [compound 11]
IC50 (amount of compound to achieve 50% inhibition of prolyl endopeptidase) (prolyl endopeptidase): 30 μg/test tube

SMILES: COC(=O)C1CCCN1C(=O)CC(c1ccccc1)c1ccccc1 (centres unmarked) [compound 22]
IC50 (amount of compound to achieve 50% inhibition of prolyl endopeptidase) (prolyl endopeptidase): 250 μg/test tube

SMILES: COc1ccc(CCCC(=O)N2CCCC2C=O)cc1 (centres unmarked) [SUAM1051]
preventive effect against scopolamine amnesia (in words) [1]: particularly remarkable effects
No. of amnesic rats/No. of rats tested [1]: 0/10
percentage amnesia [1]: 0%
Avoidance time 24 hrs. later [1]: 300.0 s
Avoidance time 48 hrs. later [1]: 300.0 s

SMILES: COC(=O)C1CCCN1C(=O)CCCc1ccc(OC)cc1 (centres unmarked) [compound 3]
IC50 (amount of compound to achieve 50% inhibition of prolyl endopeptidase) (prolyl endopeptidase): 180 μg/test tube

SMILES: O=CC1CCCN1C(=O)CCc1ccc(Cl)cc1 (centres unmarked) [compound 17]
IC50 (amount of compound to achieve 50% inhibition of prolyl endopeptidase) (prolyl endopeptidase): 1.0 μg/test tube

SMILES: COC(=O)C1CCCN1C(=O)CCCc1ccc(Cl)cc1 (centres unmarked) [compound 12]
IC50 (amount of compound to achieve 50% inhibition of prolyl endopeptidase) (prolyl endopeptidase): 50 μg/test tube

SMILES: COC(=O)C1CCCN1C(=O)Cc1ccc(Cl)cc1 (centres unmarked) [compound 10]
IC50 (amount of compound to achieve 50% inhibition of prolyl endopeptidase) (prolyl endopeptidase): 72 μg/test tube

SMILES: CCC(C(=O)N1CCCC1C=O)c1ccccc1 (centres unmarked) [SUAM1066]
No. of amnesic rats/No. of rats tested [1]: 3/10
percentage amnesia [1]: 30%
Avoidance time 24 hrs. later [1]: 268.4 s
Avoidance time 48 hrs. later [1]: 205.4 s

SMILES: COc1ccc(/C=C/C(=O)N2CCCC2C=O)cc1 (centres unmarked) [SUAM1054]
No. of amnesic rats/No. of rats tested [1]: 5/10
percentage amnesia [1]: 50%
Avoidance time 24 hrs. later [1]: 204.5 s
Avoidance time 48 hrs. later [1]: 199.7 s

SMILES: O=CC1CCCN1C(=O)Cc1ccc(Cl)cc1 (centres unmarked) [SUAM1052]
No. of amnesic rats/No. of rats tested [1]: 3/10
percentage amnesia [1]: 30%
Avoidance time 24 hrs. later [1]: 223.1 s
Avoidance time 48 hrs. later [1]: 214.8 s

SMILES: COc1ccc(CCCC(=O)N2CCCC2C=O)cc1 (centres unmarked) [compound 9]
IC50 (amount of compound to achieve 50% inhibition of prolyl endopeptidase) (prolyl endopeptidase): 0.05 μg/test tube

SMILES: COc1ccc(CC(=O)N2CCCC2C=O)cc1 (centres unmarked) [compound 7]
IC50 (amount of compound to achieve 50% inhibition of prolyl endopeptidase) (prolyl endopeptidase): 3.0 μg/test tube

SMILES: O=CC1CCCN1C(=O)CCCc1ccc(Cl)cc1 (centres unmarked) [compound 18]
IC50 (amount of compound to achieve 50% inhibition of prolyl endopeptidase) (prolyl endopeptidase): 1.5 μg/test tube

SMILES: O=CC1CCCN1C(=O)CC(c1ccccc1)c1ccccc1 (centres unmarked) [SUAM1065]
preventive effect against scopolamine amnesia (in words) [1]: particularly remarkable effects
No. of amnesic rats/No. of rats tested [1]: 1/10
percentage amnesia [1]: 10%
Avoidance time 24 hrs. later [1]: 284.6 s
Avoidance time 48 hrs. later [1]: 267.2 s

SMILES: O=CC1CCCN1C(=O)CCC(=O)c1ccccc1 (centres unmarked) [SUAM1055]
preventive effect against scopolamine amnesia (in words) [1]: particularly remarkable effects
No. of amnesic rats/No. of rats tested [1]: 0/10
percentage amnesia [1]: 0%
Avoidance time 24 hrs. later [1]: 300.0 s
Avoidance time 48 hrs. later [1]: 300.0 s

SMILES: COC(=O)C1CCCN1C(=O)CCc1ccc(OC)cc1 (centres unmarked) [Compound No. 2]
IC50 (amount of compound to achieve 50% inhibition of prolyl endopeptidase) (prolyl endopeptidase): 51 μg/test tube

SMILES: COC(=O)[C@@H]1CCCN1C(=O)CCOc1ccccc1 [Compound No. 19, N-(3-phenoxy)propionyl-proline methyl ester]
IC50 (amount of compound to achieve 50% inhibition of prolyl endopeptidase) (prolyl endopeptidase): 60 μg/test tube

SMILES: O=CC1CCCN1C(=O)CCOc1ccccc1 (centres unmarked) [Compound No. 21, N-(3-phenoxy)propionyl-prolinal]
IC50 (amount of compound to achieve 50% inhibition of prolyl endopeptidase) (prolyl endopeptidase): 2.5 μg/test tube

SMILES: COC(=O)C1CCCN1C(=O)Cc1ccc(OC)cc1 (centres unmarked) [Compound No. 1]
IC50 (amount of compound to achieve 50% inhibition of prolyl endopeptidase) (prolyl endopeptidase): 80 μg/test tube

More lines, now with the values ahead:

IC50 (amount of compound to achieve 50% inhibition of prolyl endopeptidase) (prolyl endopeptidase): 80 μg/test tube
SMILES: COC(=O)C1CCCN1C(=O)C(C)CCc1ccccc1 (centres unmarked) [compound 34]

IC50 (amount of compound to achieve 50% inhibition of prolyl endopeptidase) (prolyl endopeptidase): 0.2 μg/test tube
SMILES: CCC(C(=O)N1CCCC1C=O)c1ccccc1 (centres unmarked) [compound 27]

IC50 (amount of compound to achieve 50% inhibition of prolyl endopeptidase) (prolyl endopeptidase): 80 μg/test tube
SMILES: COC(=O)C1CCCN1C(=O)/C=C/c1ccc(OC)cc1 (centres unmarked) [compound 37]

IC50 (amount of compound to achieve 50% inhibition of prolyl endopeptidase) (prolyl endopeptidase): 0.2 μg/test tube
SMILES: COc1ccc(/C=C/C(=O)N2CCCC2C=O)cc1 (centres unmarked) [compound 39]

IC50 (amount of compound to achieve 50% inhibition of prolyl endopeptidase) (prolyl endopeptidase): 200 μg/test tube
SMILES: COC(=O)C1CCCN1C(=O)CCC(=O)c1ccccc1 (centres unmarked) [compound 28]

IC50 (amount of compound to achieve 50% inhibition of prolyl endopeptidase) (prolyl endopeptidase): 1.0 μg/test tube
SMILES: CC(CCc1ccccc1)C(=O)N1CCCC1C=O (centres unmarked) [compound 36]

IC50 (amount of compound to achieve 50% inhibition of prolyl endopeptidase) (prolyl endopeptidase): > 200 μg/test tube
SMILES: COC(=O)C1CCCN1C(=O)C(CCc1ccccc1)C(C)C (centres unmarked) [compound 31]

IC50 (amount of compound to achieve 50% inhibition of prolyl endopeptidase) (prolyl endopeptidase): 0.35 μg/test tube
SMILES: O=CC1CCCN1C(=O)CCC(c1ccccc1)c1ccccc1 (centres unmarked) [compound 42]

IC50 (amount of compound to achieve 50% inhibition of prolyl endopeptidase) (prolyl endopeptidase): > 5 μg/test tube
SMILES: CC(C)C(CCc1ccccc1)C(=O)N1CCCC1C=O (centres unmarked) [compound 33]

IC50 (amount of compound to achieve 50% inhibition of prolyl endopeptidase) (prolyl endopeptidase): 510 μg/test tube
SMILES: CCC(C(=O)N1CCCC1C(=O)OC)c1ccccc1 (centres unmarked) [compound 25]

IC50 (amount of compound to achieve 50% inhibition of prolyl endopeptidase) (prolyl endopeptidase): 0.1 μg/test tube
SMILES: O=CC1CCCN1C(=O)CC(c1ccccc1)c1ccccc1 (centres unmarked) [compound 24]

IC50 (amount of compound to achieve 50% inhibition of prolyl endopeptidase) (prolyl endopeptidase): 0.1 μg/test tube
SMILES: O=CC1CCCN1C(=O)CCC(=O)c1ccccc1 (centres unmarked) [compound 30]
